From the C3SDB collision cross section collection
Where a name gives a salt, the structure may show the parent alone.

conditions: [M+H-H2O]+; instrument: TW; calibrated with polyalanine and drug standards

collision cross section (N2) [Å²] | SMILES
127.5 | Cc1cc(O)c(C)c(O)c1C(=O)O [3-METHYLORSELLINIC ACID]
210.6 | CC1(C)CC[C@]2(C(=O)O)CC[C@]3(C)C(=CC[C@@H]4[C@@]5(C)CC[C@H](O)[C@@](C)(CO)[C@@H]5CC[C@]43C)[C@@H]2C1 [HEDERAGENIN]

SMILES | collision cross section (N2) [Å²]
Cc1cc2c(C(C)C)c(O)c(O)c(C=O)c2c(O)c1-c1c(C)cc2c(C(C)C)c(O)c(O)c(C=O)c2c1O [GOSSYPOL] | 228.1

same assay, conditions: [M+H]+; instrument: TW; calibrated with polyalanine and drug standards

collision cross section (N2) [Å²] | SMILES
152.5 | CCOc1ccc(NC(=O)CC(C)O)cc1 (stereo not given) [BUCETIN]
158.6 | C=CCc1ccccc1OCC(O)CNC(C)C (stereo not given) [ALPRENOLOL]
178 | Cc1ccc(S(=O)(=O)NC(=O)NN2CC3CCCC3C2)cc1 (stereo not given) [GLICLAZIDE]
213.9 | COc1cc2c(cc1OC)Cc1cc(OC)c(OC)cc1Cc1cc(OC)c(OC)cc1C2 [CYCLOVERATRYLENE]
222.1 | CC(=O)O[C@H]1CC[C@@]2(C)[C@H](CC[C@@H]3[C@@H]2CC[C@]2(C)[C@@H]4[C@H](C[C@@H]32)O[C@]2(CC[C@@H](C)CO2)[C@H]4C)C1 [SMILAGENIN ACETATE]
146.7 | CC(C)(CO)[C@@H](O)C(=O)NCCC(=O)[O-] [PANTOTHENIC ACID(d) Na salt]
212.8 | COC(=O)[C@H](Cc1ccccc1)NC(=O)/C(=C1\OC(=O)C(c2ccccc2)=C1O)c1ccccc1 [RHIZOCARPIC ACID]
147.1 | CC(C)(c1ccc(O)cc1)c1ccc(O)cc1 [BISPHENOL A]
214.5 | CC(=O)N1CCN(c2ccc(OC[C@H]3CO[C@](Cn4ccnc4)(c4ccc(Cl)cc4Cl)O3)cc2)CC1 [KETOCONAZOLE]
150.2 | CC1=C2C(=CO[C@H](C)[C@H]2C)C(=O)C(C(=O)O)=C1O [CITRININ]
159.2 | Cc1cccc(C)c1NC(=O)c1ccccc1C(=O)O [FTAXILIDE]
138.7 | O=C(O)CCNC(=O)c1ccccc1 [BETAMIPRON]
165.5 | Oc1cc(O)c2c(c1)O[C@H](c1cc(O)c(O)c(O)c1)[C@H](O)C2 [EPIGALLOCATECHIN]
276.1 | CC[C@H]1OC(=O)[C@H](C)[C@@H](O[C@H]2C[C@@](C)(OC)[C@@H](O)[C@H](C)O2)[C@H](C)[C@@H](O[C@@H]2O[C@H](C)C[C@H](N(C)C)[C@H]2O)[C@](C)(O)C[C@@H](C)/C(=N\OCOCCOC)[C@H](C)[C@@H](O)[C@]1(C)O [ROXITHROMYCIN]
174.3 | O=C(CCNNC(=O)c1ccncc1)NCc1ccccc1 [NIALAMIDE]
187.4 | CC1(C)S[C@@H]2[C@H](NC(=O)[C@H](N)c3ccc(O)cc3)C(=O)N2[C@H]1C(=O)O [AMOXICILLIN]
168.3 | COc1c(O)cc2c(c1O)[C@@H]1O[C@H](CO)[C@@H](O)[C@H](O)[C@H]1OC2=O [BERGENIN]
284.2 | CC[C@H]1OC(=O)[C@H](C)[C@@H](O[C@H]2C[C@@](C)(OC)[C@@H](O)[C@H](C)O2)[C@H](C)[C@@H](O[C@@H]2O[C@H](C)C[C@H](N(C)C)[C@H]2O)[C@](C)(O)C[C@@H](C)[C@@H]2N[C@@H](COCCOC)O[C@H]([C@H]2C)[C@]1(C)O [DIRITHROMYCIN]
171 | CCn1cc(C(=O)O)c(=O)c2cnc(N3CCNCC3)nc21 [PIPEMIDIC ACID]
204.5 | Cc1cc(O)c(C=O)c2c1C(=O)Oc1c(COC(=O)/C=C/C(=O)O)c(O)c(C(=O)O)c(C)c1O2 [FUMARPROTOCETRARIC ACID]
222.5 | CC(C)(CO)[C@@H](O)C(=O)NCCC(=O)NCCSSCCNC(=O)CCNC(=O)[C@H](O)C(C)(C)CO [PANTETHINE]
269.7 | CC[C@H]1OC(=O)[C@H](C)C(=O)[C@H](C)[C@@H](O[C@@H]2O[C@H](C)C[C@H](N(C)C)[C@H]2O)[C@](C)(OC)C[C@@H](C)C(=O)[C@H](C)[C@H]2N(CCCCn3cnc(-c4cccnc4)c3)C(=O)O[C@]12C [TELITHROMYCIN]
172.7 | CCC(Cc1c(I)cc(I)c(N)c1I)C(=O)O (stereo not given) [IOPANIC ACID]
225 | CCCc1nc(C(C)(C)O)c(C(=O)OCc2oc(=O)oc2C)n1Cc1ccc(-c2ccccc2-c2nn[nH]n2)cc1 [OLMESARTAN MEDOXOMIL]
140 | COc1ccc2cc([C@H](C)CO)ccc2c1 [NAPROXOL]
206.1 | COC(=O)C[C@H]1C(C)(C)C(=O)[C@@H]2CC3C4=CC(=O)O[C@@H](c5ccoc5)[C@]4(C)CCC3[C@@]1(C)C2=O (stereo not given in full) [CARAPIN]

Further lines, the compound ahead of its results:

SMILES | collision cross section (N2) [Å²]
O=c1c(O)c(-c2ccc(O)c(O)c2)oc2cc(O)ccc12 [FISETIN] | 160.7
Oc1ccc(Cl)cc1Cc1cc(Cl)ccc1O [DICHLOROPHENE] | 147.4
Cc1cc(=O)oc2c(O)c(O)ccc12 [4-METHYLDAPHNETIN] | 134.8
Nc1ccc(S(=O)(=O)Nc2ccc(Cl)nn2)cc1 [SULFACHLORPYRIDAZINE] | 158.2
COc1ccc(C(=O)c2ccccc2)c(O)c1 [OXYBENZONE] | 146.5
O=c1c(O)c(-c2ccccc2)oc2cc(O)cc(O)c12 [GALANGIN] | 154.9
COC1=CC(=O)C(O)=C/C1=C\C=C\c1ccccc1 [OBTUSAQUINONE] | 155.1
c1coc(CNc2ncnc3nc[nH]c23)c1 [KINETIN] | 144.1
COc1cc2c(cc1OC)-c1c(oc3cc(O)cc(O)c3c1=O)CO2 [APOTOXICAROL] | 173.8
COc1c2c(cc3occ(-c4ccc5c(c4)OCO5)c(=O)c13)OC(C)(C)C=C2 [METHYL ROBUSTONE] | 186.9
COc1cc2c(cc1OC)C(=O)OC2 [METAMECONINE] | 137.6
COc1cc2ccc(=O)oc2cc1O [SCOPOLETIN] | 133.6
c1ccc2c(c1)[nH]c1cnccc12 [NORHARMAN] | 132.2
O=c1c(-c2ccccc2)coc2cc(O)cc(O)c12 [5,7-DIHYDROXYISOFLAVONE] | 152.3
OC(CCN1CCCCC1)(c1ccccc1)C1CC2C=CC1C2 (stereo not given) [BIPERIDEN] | 175.7
Clc1ccc2c(c1)C(N1CCNCC1)=Nc1ccccc1O2 [AMOXAPINE] | 171.2

SMILES | collision cross section (N2) [Å²]
CN(C)CCc1c[nH]c2ccc(C[C@H]3COC(=O)N3)cc12 [ZOLMITRIPTAN] | 159.7
CCCCC1=NC2(CCCC2)C(=O)N1Cc1ccc(-c2ccccc2-c2nn[nH]n2)cc1 [IRBESARTAN] | 201.2
Cc1coc2c1C(=O)C(=O)c1c-2ccc2c1CCCC2(C)C [TANSHINONE IIA] | 164
COc1cc(OC)c(OC)cc1C=O [ASARYLALDEHYDE] | 138.3
O=C(O)CCCc1ccc(N(CCCl)CCCl)cc1 [CHLORAMBUCIL] | 168.7
CC(=O)Oc1ccc(Cl)c2cccnc12 [CHLOROACETOXYQUINOLINE] | 141.1
Oc1ccc([C@H]2Oc3cc(O)cc(O)c3C[C@H]2O)cc1 [EPIAFZELECHIN (2R,3R)(-)] | 159.4
CC[C@H]1[C@@H]2C[C@H]3[C@@H]4N(C)c5ccccc5[C@]45C[C@@H]([C@H]2[C@H]5O)N3[C@@H]1O [AJMALINE] | 172.9
COc1ccc2cc1Oc1ccc(cc1)C[C@H]1c3cc(c(OC)cc3CCN1C)Oc1c(OC)c(OC)cc3c1[C@H](C2)N(C)CC3 [TETRANDRINE] | 245.3
CCC(=O)O[C@H]1CC[C@H]2[C@@H]3CCC4=CC(=O)CC[C@]4(C)[C@H]3CC[C@]12C [TESTOSTERONE PROPIONATE] | 188.2
Cn1c(=O)[nH]c(=O)c2[nH]cnc21 [3-METHYLXANTHINE] | 127.9
COC[C@]12CN(C=O)C3[C@@H]4[C@H](OC)C1[C@]3(C1CC3(O)C(OC)C(O)C4(OC(C)=O)C1C3OC(=O)c1ccccc1)[C@@H](OC)C[C@H]2O (stereo not given in full) [OXONITINE] | 236.2
COc1cc2c(cc1OC)[C@@]13CCN4CC5=CCO[C@H]6CC(=O)N2[C@H]1[C@H]6[C@H]5C[C@H]43 [BRUCINE] | 190.9
CC(NC(C)(C)C)C(=O)c1cccc(Cl)c1 (stereo not given) [BUPROPION] | 157.5
CCC1(c2ccc(N)cc2)CCC(=O)NC1=O (stereo not given) [AMINOGLUTETHIMIDE] | 164.8
N=c1nc(N2CCCCC2)cc(N)n1O [MINOXIDIL] | 146.1

same assay, conditions: [M+Na]+; instrument: TW; calibrated with polyalanine and drug standards

collision cross section (N2) [Å²] | SMILES
191.9 | C=C[C@@]1(C)CC(=O)[C@]2(O)[C@@]3(C)[C@@H](O)CCC(C)(C)[C@@H]3[C@H](O)[C@H](OC(C)=O)[C@@]2(C)O1 [COLFORSIN]
233.5 | C[C@H]1[C@H](C)CC[C@]2(C(=O)O)CC[C@]3(C)C(=CC[C@@H]4[C@@]5(C)C[C@@H](O)[C@H](O)[C@@](C)(CO)[C@@H]5CC[C@]43C)[C@H]12 [ASIATIC ACID]

Second part, the compound before the results:

SMILES | collision cross section (N2) [Å²]
O=C1[C@H](CC[C@H](O)c2ccc(F)cc2)[C@@H](c2ccc(O)cc2)N1c1ccc(F)cc1 [EZETIMIBE] | 213.6
CC[C@H](C)[C@H]1O[C@]2(C=C[C@@H]1C)C[C@@H]1C[C@@H](C/C=C(\C)[C@@H](O[C@H]3C[C@H](OC)[C@@H](O[C@H]4C[C@H](OC)[C@@H](O)[C@H](C)O4)[C@H](C)O3)[C@@H](C)/C=C/C=C3\CO[C@@H]4[C@H](O)C(C)=C[C@@H](C(=O)O1)[C@]34O)O2 [Abamectin B1A] | 290.5
